Laboratory results taken from ChEMBL document CHEMBL3507680, “University of Dundee, Gates Library screen for HepG2 cell viability”.

Assay: Human HepG2 cell viability assay in 384 well format
Type: toxicity, cell-based
Design: dose 125 nL, time 70.5 hour; concentration not given beside the values
Conditions: HepG2 cells, read-out: Inhibition

| SMILES | cytotoxicity at 70.5 h [%] |
| --- | --- |
| CC1CCc2[nH]c(=O)c(C(=O)N3CCc4ccccc4C3)cc2C1 (configuration not stated) | 0.747 |
| CCC(NC(=O)c1cnc(N(C)C)nc1C)c1ccc(S(C)(=O)=O)cc1 (configuration not stated) | -8.61 |
| CCOC(=O)CNC(=O)C1OC(c2ccccc2)=NN1C(C)=O (configuration not stated) | -6.97 |
| O=C(Cn1cccc(S(=O)(=O)N2CCCC2)c1=O)c1ccccc1Cl | -8.77 |
| O=C(CCCc1cn[nH]c1)N1C[C@@H](CN2CCCCCC2)[C@@H](CO)C1 | -6.07 |
| CC(CNC(=O)c1cc(Cn2cnc3ccccc32)[nH]n1)N1CCCC1 (configuration not stated) | -7.82 |
| O=C(Cc1ccccn1)N1CCN(C(=O)CC2CCCCC2)CC1 | -2.98 |
| Cc1cnc(NCC(C)(C)N2CCCCC2)nc1 | -5.95 |
| Cc1ccc(C(CNCc2ncc[nH]2)N2CCOCC2)s1 (configuration not stated) | -12.7 |
| CN(C)Cc1ccnc(C2CN(Cc3nccs3)CCO2)n1 (configuration not stated) | 1.69 |
| Cc1noc(CN(C)c2nc(-c3ccco3)nc3c2CCN(C)CC3)n1 | -12.8 |
| Cn1nc(C2CC2)cc1C(=O)N1CCC(c2nnsc2S(C)(=O)=O)CC1 | -4.78 |
| CCN(Cc1cccnc1)CC1(C)Cc2c(N)nc(N)nc2O1 (configuration not stated) | -1.96 |
| COc1c(CNCC(O)c2ccccc2F)c(C(C)C)nn1C (configuration not stated) | 21.4 |
| CCc1csc(CCNC(=O)CC2CCN(C(C)C)CC2)n1 | 23 |
| CN(C)CCOC[C@H]1CC[C@H]2[C@H](CCN2C(=O)c2ccoc2)O1 | -12.4 |
| CCOCC(O)CN1CCN(C(=O)C2CCCCC2)CC1 (configuration not stated) | -0.878 |
| CC1CCN(C(=O)Cn2cc(I)cn2)CC1 | 0.739 |
| COc1nn(C)c2c1CCCN(C(=O)c1cscn1)C2 | 2.23 |
| CCc1c(C)nn(C)c1NC(=O)N1CCCOC(Cn2cccn2)C1 (configuration not stated) | -4.64 |
| Cc1ccnc(OC[C@]23COC[C@H]2CN(C(=O)c2ncccn2)C3)n1 | 21.2 |
| O=C1CC[C@H]2CN(c3ncc(F)cn3)CC[C@H]2N1CCc1ccccn1 | -5.32 |
| CCn1nc(C)c2nc(C)nc(NCCc3ccc(C)cc3)c21 | 34.1 |

| SMILES | cytotoxicity at 70.5 h [%] |
| --- | --- |
| CSc1ccccc1CN1C[C@H]2CC[C@@H]1CN(Cc1[nH]cnc1C)C2 | 17.6 |
| Cn1nc(C(C)(C)C)cc1NC(=O)CSc1nnc[nH]1 | -4.97 |
| O=C1CC(c2ccccc2)c2cnn(C3CCCC3)c2N1 (configuration not stated) | 18.5 |
| CNS(=O)(=O)c1ccc(C(=O)N2CCCC2Cc2ccccc2)o1 (configuration not stated) | 1.08 |
| CC(C)CN1CCC(c2nnc(CN3CCCC3)n2C2CC2)CC1 | -6.17 |
| Cc1ccc(N2CCN(C(=O)COc3nccc(C)n3)CC2)nn1 | 16 |
| O=C(CN1C(=O)CCNC1=O)N1CCOC(c2ccc(Cl)c(Cl)c2)C1 (configuration not stated) | -10.7 |
| CCN1CCC2(CC1)CC(NC(=O)c1ccnnc1)c1ccccc12 (configuration not stated) | 7.06 |
| CCOC(=O)c1sc2ccsc2c1CNC(=O)C(C)OC (configuration not stated) | 3.36 |
| COCC(=O)N1CCCC2(COCCN(CCN(C)C)C2)C1 (configuration not stated) | 8.27 |
| O=C(c1ccc[nH]1)N1CCN(C(c2ccccc2)C(F)(F)F)CC1 (configuration not stated) | -7.16 |
| O=C(COc1coc(CN2CCOCC2)cc1=O)c1ccc(Cl)cc1 | -9.03 |
| Cc1cccc(C(=O)N2CC[C@]3(C[C@H](OCc4ccccn4)CO3)C2)c1 | 11.1 |
| CCc1nnc(CN(CC)C(=O)CCc2scnc2C)o1 | -2.72 |
| O=C(CCc1cccnc1)N1CCCCC1c1ccn2ccnc2n1 (configuration not stated) | -6.74 |
| Cc1cc(C)n(CC2CCCN2C(=O)CCc2ccco2)n1 (configuration not stated) | -14.5 |
| CN(C)C1CCN(C(=O)c2cccc(S(=O)(=O)NCC3(C)COC3)c2)C1 (configuration not stated) | -9.11 |
| CC(=O)N1CC[C@H]2CC(=O)N(C3CC3)CC[C@H]2C1 | 14.2 |
| O=C(CSc1ccc(F)cc1F)NS(=O)(=O)c1ccc2c(c1)OCCO2 | -3.46 |
| COCCN(C)C[C@H]1C[C@H](CO)CN(C(=O)c2ccn(C)c(=O)c2)C1 | -9.68 |
| c1cnnc(N2CCCC2CNc2cnc3ccccc3n2)c1 (configuration not stated) | -2.61 |
| COCCN1CCC2(CCN(Cc3ccc(OC)cc3)CC2)C1=O | -11.1 |
| CCN1CCC2(CC1)CC(CC(=O)N(C)C)c1ccc(F)cc12 (configuration not stated) | 33.5 |

| SMILES | cytotoxicity at 70.5 h [%] |
| --- | --- |
| CN(C(=O)C1(C#N)CCCCC1)c1nccs1 | -0.486 |
| Cn1cc(-c2cnc(-c3ccnn3C)nc2)cc1C(=O)NC1CC1 | -4.34 |
| Cc1nc(C)n(CC2CCCN2CCC(=O)NC2CCCC2)n1 (configuration not stated) | 0.666 |
| CCOCC(=O)NCC(Cc1cccc(F)c1)n1cccc1 (configuration not stated) | -1.33 |
| CS(=O)(=O)N1C[C@@H]2COC[C@@H](CC(=O)N3CCCO3)[C@@H]2C1 | -8.58 |
| Cc1ccc(C)c2c(=O)cc(CN3CC[C@@H](N)[C@H](O)C3)[nH]c12 | -3.81 |
| Cc1ncsc1CCC(=O)NCc1cc2n(n1)CCNC2 | -8.17 |
| N#Cc1ccccc1N1CCCN(C(=O)CCc2nccs2)CC1 | -21.6 |
| CC(C)N(C)CC(=O)NCc1ccccc1N1CCN(C)CC1 | 9.3 |
| COCCOc1ccc(NC(=O)N2CCCC2c2cc(C)no2)cn1 (configuration not stated) | -7.2 |
| COc1ccc(C2CC(=O)Nc3c2cnn3C)cc1 (configuration not stated) | 4.68 |
| COc1ccc(-c2c[nH]c([C@@H]3COCCN3)n2)cc1 | 1.65 |
| CC(=O)N1CCC2(CC1)c1ncc(-c3ccccc3)n1CCN2C | -9.38 |
| CN(C)CC1(O)CCCN(Cc2cnc(-c3ccco3)nc2)CC1 (configuration not stated) | -8.26 |
| O=C1CN(c2ccc(CNC(=O)c3cccnc3O)cc2F)CCN1 | -2.79 |
| NC(=O)CCC1CCCN(c2ccnc3cc(F)ccc23)C1 (configuration not stated) | -12.1 |
| CC(C)COC(C)C(=O)NCc1ccccc1 (configuration not stated) | -5.1 |
| CCN(CC1CCOC1)C(=O)c1ccc(N2CCOCC2)c(F)c1 (configuration not stated) | -6.24 |
| COCCO[C@H]1CCN(Cc2cccs2)[C@H]1Cc1cccnc1 | -8.35 |
| CCC(NC(=O)C1CCN(S(C)(=O)=O)CC1)c1ccc(C)cc1C (configuration not stated) | -4.73 |
| Cc1cc(NS(=O)(=O)c2cnc3onc(C)c3c2)no1 | 0.112 |
| CS(=O)(=O)N1CCC2(CC1)CN(CC1CC1)CC21CCNC1=O (configuration not stated) | -9.45 |
| CN(CCc1ccccn1)C(=O)CCC1CCCN(S(C)(=O)=O)C1 (configuration not stated) | 3.47 |

| SMILES | cytotoxicity at 70.5 h [%] |
| --- | --- |
| c1cnnc(-c2noc(COCC3CCCO3)n2)c1 (configuration not stated) | -3.34 |
| COc1ccc(CNC2(Cc3cc(CC(C)C)on3)COC2)cc1 | 9.64 |
| CO[C@H]1CCN(S(=O)(=O)N(C)C)[C@@H]2CN(Cc3cccnc3)C[C@H]12 | -5.31 |
| O=C(NC[C@H]1OC[C@@H]2CCN(c3ncccn3)C[C@@H]21)c1ccnnc1 | 1.23 |
| COc1ccccc1Oc1ncccc1CNC(=O)CN1CCCC1=O | -4.31 |
| CCc1noc(C(C)N2CCN(CCc3ccncc3)CC2)n1 (configuration not stated) | -5.36 |
| Cn1ccnc1CN1CCN(c2ncnc3ccsc23)CC1 | -0.211 |
| CC1CCN(CCCNS(=O)(=O)Cc2ccccc2F)CC1 | 1.01 |
| O=C(Nc1nc(-c2ccccc2)ns1)N1CCN(C(=O)C2CC2)CC1 | -0.566 |
| CN1CCO[C@H]2CN(C(=O)c3ccoc3)C[C@H]21 | -7.03 |
| c1csc(CN2CC3(CCN(Cc4ccsc4)C3)C2)n1 | 8.65 |
| NC(=O)C(NCc1cccs1)c1ccccc1 (configuration not stated) | -9.69 |
| N#CC1(C(=O)NCc2ccc(F)cc2)CCCC1 | 3.1 |
| CC(=O)N(Cc1ncc(C)o1)C1CCN(Cc2nccn2C)C1 (configuration not stated) | 2.28 |
| CN1CCN(C(=O)Cn2ccc3c(Cl)cccc32)CC1 | -12.2 |
| COc1ccc(CN2CCc3c(CNC(=O)CC#N)nn(C)c3C2)cc1 | -1.4 |
| NC(=O)CN1CCCN(C(=O)Cc2ccc(Br)cc2)CC1 | -13.7 |
| Cn1cc(CN2CCCC3(CCCN3S(C)(=O)=O)C2)cn1 (configuration not stated) | -16.8 |
| O=C(c1ccncc1)N1CCN2C[C@H](Oc3cccnc3)C[C@H]2C1 | 2.63 |
| CC(C)CNC(=O)c1ccc(NC(=O)NC(C)C)cc1Cl | -11.5 |
| O=C(COc1ccccc1N1CCCC1)N1CCN[C@H]2CS(=O)(=O)C[C@H]21 | -7.17 |
| CC(CNS(N)(=O)=O)Oc1cccc(Cl)c1 (configuration not stated) | -0.0153 |
| COc1cccc2[nH]cc(CCNC(=O)N3CCOCC3C3CC3)c12 (configuration not stated) | 23.2 |

| SMILES | cytotoxicity at 70.5 h [%] |
| --- | --- |
| c1nc(N2CCCC(Cn3cncn3)C2)c2ccsc2n1 (configuration not stated) | 38.8 |
| Cc1nnc2n1CCN(CC(=O)NC(C)c1cc3ccccc3o1)C2 (configuration not stated) | 2.01 |
| CCN(CC)CCNC(=O)c1cnc(C(C)(C)C)s1 | -6.77 |
| COC(=O)c1ccc(CNC(C)(C)c2ccccc2OC)o1 | -6.94 |
| O=C(NCC(=O)N1CCCC1Cc1cccc(F)c1)C1CCCC1 (configuration not stated) | -1.38 |
| NC(=O)N1CCCN(C(=O)Nc2cc(-n3cccc3)ccc2F)CC1 | -6.12 |
| O=C(O)c1ccnc(-c2ccnc(NCCc3cscn3)n2)c1 | -2.9 |
| COc1cc(C(=O)NS(=O)(=O)c2cc(Cl)sc2Cl)ccc1OC(F)F | -5.6 |
| Cc1cccc(OCC(=O)N(Cc2ccncc2)C2CC2)c1 | -0.457 |
| Cc1ccc(N2CCCC3(COCCN(c4cnccn4)C3)C2)nn1 (configuration not stated) | -0.306 |
| CC(C)CS(=O)(=O)N1C[C@H]2C[C@H](C(=O)N3CCOCC3)[C@@H](C1)O2 | 13.9 |
| NS(=O)(=O)CCCC(=O)N1CCC2(CC1)c1ccccc1CC2O (configuration not stated) | -4.4 |
| O=C([C@H]1CN(Cc2ccncc2)C[C@H]2OCC[C@@H]12)N1CCCCO1 | -14.4 |
| Cc1cccc2c1C(=O)NC1(CCOCC1)N2 | -13.5 |
| Cc1nnc(NCCc2nc3ccc(F)cc3n2C)c(C#N)c1C | 1.4 |
| CCOC1COC2(CCN(C(=O)c3cccc(C)n3)CC2)C1 (configuration not stated) | -0.53 |
| COCCC1CCN([C@@H]2c3ccccc3C3(CCNCC3)[C@H]2O)CC1 | -3.9 |
| CN1CCC(N(Cc2ccco2)S(=O)(=O)c2ccc(Br)cc2Cl)CC1 | 1.77 |
| CC(C)Nc1ncccc1C(=O)NCc1cnc(N(C)C)n1C | -14.4 |
| COc1ccc(C(C(=O)O)N(C)CCN2CCOCC2)c(C)c1 (configuration not stated) | -11.3 |
